Results on eleven compounds are retold here after patent US10047083B2, “Dihydropyrimidinoisoquinolinones and pharmaceutical compositions thereof for the treatment of inflammatory disorders” (GALAPAGOS NV, priority 2011, dated 2018).

The structures appear in SMILES notation.

Test [1] has as its system RAW264.7 murine macrophage-like cells. To be noted: RAW264.7 cells stimulated with LPS; cited from earlier work.
The test system of test [2] is human neutrophils. Nature of the test: Human neutrophil migration assay (embelin-induced). The format is cell-based.
Test [3] has as its target T1, GPR84 (Homo sapiens, UniProt Q9NQS5).
T1 construct: expressed in transfected cells; membranes used
Nature of the test: GTPγS binding assay (GPR84). To be noted: membranes from stable cell line over expressing GPR84; 3,3′ di indolylmethane at EC80. The test is classed as biochemical. Summed up: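 Membranes (20 μg/well) from a stable GPR84-overexpressing line, pre-incubated with 0.1 μM GDP for 15 min at 4° C, mixed with 0.1 nM [35S]GTPγS and WGA SpA beads in 20 mM HEPES pH 7.4, 5 mM MgCl2, 250 mM NaCl, 0.05% BSA, 75 ug/mL saponin; 90 min at room temperature, then scintillation counting.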
(GTPγS is a poorly hydrolysed GTP analogue; its binding reports G protein activation.)

Test [4] relates to human neutrophils. Put plainly: Human neutrophil migration assay (embelin-induced). To be noted: neutrophils from human buffy coat, 30 min compound pre-incubation, migration towards embelin at EC80 for 1 h, ATPlite readout, read-out: human neutrophil migration inhibition (Neutrophils). The format is cell-based.
Test [5] has as its target T1, GPR84. To be noted: Wang et al. (2006); WO 2007/027661A2; cited from earlier work.

T1 sequence (Q9NQS5 whole entry): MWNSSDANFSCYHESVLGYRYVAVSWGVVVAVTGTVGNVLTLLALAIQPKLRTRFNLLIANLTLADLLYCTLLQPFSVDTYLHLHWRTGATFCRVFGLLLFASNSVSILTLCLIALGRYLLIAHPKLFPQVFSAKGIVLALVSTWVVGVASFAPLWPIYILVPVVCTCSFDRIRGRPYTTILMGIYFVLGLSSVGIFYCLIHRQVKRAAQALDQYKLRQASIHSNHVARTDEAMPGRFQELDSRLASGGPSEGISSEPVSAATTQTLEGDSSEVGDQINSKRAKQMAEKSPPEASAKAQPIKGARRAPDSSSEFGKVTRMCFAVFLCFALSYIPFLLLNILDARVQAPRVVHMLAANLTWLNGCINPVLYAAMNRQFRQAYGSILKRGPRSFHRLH

For `CCCCCCCCCC(=O)O` [capric acid], in test [1], the “secretion of interleukin-12 p40 subunit (IL-12 p40)” value (“secretion” below) is given as “dose dependently increased”.
As to `c1ccc2c(Cc3c[nH]c4ccccc34)c[nH]c2c1` [3,3′ di indolylmethane], the “induction of neutrophil chemotaxis by GPR84 agonists” value in the test with human neutrophils [2] was “induce neutrophil chemo taxis”.
For `CCCCCCCCCCCC(=O)O` [lauric acid], the “secretion” value in test [1] is “dose dependently increased”.
Turning to `CCCCCCCCCCC(=O)O` [undecanoic acid], in test [1], the “secretion” value is recorded as “dose dependently increased”.
For the compound `COc1ncccc1-c1ccc2c(c1)CCn1c-2cc(OCC2COCCO2)nc1=O` (stereo not shown) [Compound 56, 2-([1,4]dioxan-2-ylmethoxy)-9-(2-methoxy-pyridin-3-yl)-6,7-dihydro-pyrimido[6,1-a]isoquinolin-4-one], the IC50 at GPR84 [3] and in the test on human neutrophils [4] was 101 to 500 nM each time.
Regarding `CC(C)(O)CCCc1ccc2c(c1)CCn1c-2cc(OC[C@@H]2COCCO2)nc1=O` [Compound 160, 2-((S)-1-[1,4]dioxan-2-ylmethoxy)-9-(4-hydroxy-4-methyl-pentyl)-6,7-dihydro-pyrimido[6,1-a]isoquinolin-4-one], the IC50 at GPR84 [3] and in the test with human neutrophils [4] was 101 to 500 nM in each case.
Take `CCCCCCCCCC(=O)[O-].[Na+]` [sodiumdecanoate]: the “induction of neutrophil chemotaxis by GPR84 agonists” value with human neutrophils [2] is “induce neutrophil chemo taxis”.
For `O=c1nc(OC[C@@H]2COCCO2)cc2n1CCc1cc(CCC3CC3)ccc1-2` [Compound 123, 9-(2-cyclopropyl-ethyl)-2-((S)-1-[1,4]dioxan-2-ylmethoxy)-6,7-dihydropyrimido[6,1-a]isoquinolin-4-one], the IC50 on GPR84 [3] and with human neutrophils [4] was 0.01 to 100 nM throughout.
Take `COCCOCC#Cc1ccc2c(c1)CCn1c-2cc(OC[C@@H]2COCCO2)nc1=O` [Compound 133, 2-((S)-1-[1,4]dioxan-2-ylmethoxy)-9-[3-(2-methoxy-ethoxy)-prop-1-ynyl]-6,7-dihydro-pyrimido[6,1-a]isoquinolin-4-one]: the IC50 at GPR84 [3] fell in the range of 101 to 500 nM; in the test on human neutrophils [4], 0.01 to 100 nM.
Turning to `O=c1nc(OCC2COCCO2)cc2n1CCc1cc(OCc3noc(C4CC4)n3)ccc1-2` (stereo not shown) [Compound 77, 9-(5-cyclopropyl-[1,2,4]oxadiazol-3-ylmethoxy)-2-([1,4]dioxan-2-ylmethoxy)-6,7-dihydro-pyrimido[6,1-a]isoquinolin-4-one], the IC50 at GPR84 [3] and in the test on human neutrophils [4] was 0.01 to 100 nM each time.
`c1ccc2c(Cc3c[nH]c4ccccc34)c[nH]c2c1` [3,3′ di-indolylmethane]: at GPR84 [5], the GPR84 agonist activity entry is listed as “some GPR84 agonist activity”.
